# Test results taken from patent US20230133672A1, “FUSION POLYPEPTIDE COMPRISING GDF15 AND POLYPEPTIDE REGION CAPABLE OF O-GLYCOSYLATION” (LG CHEM, LTD., priority 2019, published 2023).
# Experiments:
# [1] = Single administration: feed intake in DIO mice; assay type: in vivo, Mouse, C57BL/6J-DIO; set-up: unit not given here
# Procedure: The pharmacological effect of the fusion polypeptides produced and purified in Example 1 above was tested in mice (C57BL/6J, 6-week-old, male, 100 mice; Raonbio).
# In the present example, DI0 mouse model (Mouse, C57BL/6J-DIO, male, 100 mice, 14-week-old (obesity feed feeding for 8 weeks)) in which obesity was induced by feeding a high-fat diet into the C57BL/6J mice for 8 weeks was used.
# The administration of the test substances HT-ID1-GDF15, HT-ID2-GDF15, and HT-ID3-GDF15 and the control substance Semaglutide (Bachem) was conducted from the next day after group separation, and the administration time was performed at 9 AM every day. Subcutaneous administration was conducted for all the control substance and test substances. For the administration route of the control substance and test substances, subcutaneous administration was selected depending on the clinically scheduled administration route.
# For all the control substance and test substances, the amount of the administration solution was set to 5 mL/kg and the administration liquid by individual was calculated on the basis of the recently measured body weight and it was administered by subcutaneous injection once on the start day of the test using a disposable syringe (1 mL). The test substances were administered only once. For comparison, the control group in which the control substance Semaglutide was administered was prepared, and the comparison group in which Semaglutide was administered was administered once a day, and all the administration was progressed from 9 AM.
# (§1) In addition, after administering the test substances into mice, the daily feed intake was measured, and the feeding amount was measured using an electronic scale for each breeding box, and the remaining amount was measured to calculate the daily feed intake. In case of an individual that gnawed heavily on heed, it was excluded from the measurement.
# (§2) All the experimental results obtained in the present example were expressed as mean±standard error and tested using Prism5 (version 5.01). One-way analysis of variance (ANOVA) was performed on all data, and when significance was observed, Dunnett's test was performed to find out the test groups with a significant difference from the control group (significance level: two-sided 5% and 1%, 0.1%).
# [2] = Repeated administration: feed intake in DIO mice; assay type: in vivo, Mouse, C57BL/6J-DIO; set-up: unit not given here
# Procedure: as §1, §2
# Except for the administration dose, animal number and administration cycle, most of the test processes were the same as in Example 2.1.1 above.
# The test substances were administered twice a week (Days 0, 4, 7, 11, 14, 18, 21, 25) for a total of 8 times. For comparison, the control group in which the control substance Semaglutide was administered every day was prepared, and the comparison group in which Semaglutide was administered every day was administered once a day daily, and all the administration was progressed from 9 AM.
substance,measurement,setting,value
"HT-ID3-GDF15: Fusion polypeptide: His-Tag, TEV cleavage site, three IgD hinges, GS linker, GDF15 (SEQ ID NO: 3)","Feed intake, Mean","[1]; Day 0, 10 nmol/kg Single Inj.",3.2
same,"Feed intake, Mean","[1]; Day 1, 10 nmol/kg Single Inj.",2.0
same,"Feed intake, Mean","[1]; Day 2, 10 nmol/kg Single Inj.",2.5
same,"Feed intake, Mean","[1]; Day 3, 10 nmol/kg Single Inj.",2.3
same,"Feed intake, Mean","[1]; Day 4, 10 nmol/kg Single Inj.",2.3
same,"Feed intake, Mean","[1]; Day 5, 10 nmol/kg Single Inj.",2.7
same,"Feed intake, Mean","[1]; Day 6, 10 nmol/kg Single Inj.",2.8
same,"Feed intake, Mean","[1]; Day 7, 10 nmol/kg Single Inj.",3.3
same,"Feed intake, Mean","[1]; Day 8, 10 nmol/kg Single Inj.",3.3
same,"Feed intake, Mean","[1]; Day 9, 10 nmol/kg Single Inj.",3.6
same,"Feed intake, Mean","[2]; Day 1, 3 nmol/kg twice a week",2.9
same,"Feed intake, Mean","[2]; Day 1, 10 nmol/kg twice a week",2.9
same,"Feed intake, Mean","[2]; Day 1, 30 nmol/kg twice a week",2.5
same,"Feed intake, Mean","[2]; Day 2, 3 nmol/kg twice a week",1.5
same,"Feed intake, Mean","[2]; Day 2, 10 nmol/kg twice a week",1.7
same,"Feed intake, Mean","[2]; Day 2, 30 nmol/kg twice a week",1.6
same,"Feed intake, Mean","[2]; Day 3, 3 nmol/kg twice a week",1.9
same,"Feed intake, Mean","[2]; Day 3, 10 nmol/kg twice a week",2.3
same,"Feed intake, Mean","[2]; Day 3, 30 nmol/kg twice a week",2.1
same,"Feed intake, Mean","[2]; Day 4, 3 nmol/kg twice a week",1.9
same,"Feed intake, Mean","[2]; Day 4, 10 nmol/kg twice a week",2.2
same,"Feed intake, Mean","[2]; Day 4, 30 nmol/kg twice a week",2.2
same,"Feed intake, Mean","[2]; Day 5, 3 nmol/kg twice a week",2.0
same,"Feed intake, Mean","[2]; Day 5, 10 nmol/kg twice a week",2.1
same,"Feed intake, Mean","[2]; Day 5, 30 nmol/kg twice a week",2.3
same,"Feed intake, Mean","[2]; Day 6, 3 nmol/kg twice a week",1.6
same,"Feed intake, Mean","[2]; Day 6, 10 nmol/kg twice a week",1.9
same,"Feed intake, Mean","[2]; Day 6, 30 nmol/kg twice a week",1.8
same,"Feed intake, Mean","[2]; Day 7, 3 nmol/kg twice a week",2.1
same,"Feed intake, Mean","[2]; Day 7, 10 nmol/kg twice a week",2.2
same,"Feed intake, Mean","[2]; Day 7, 30 nmol/kg twice a week",2.2
same,"Feed intake, Mean","[2]; Day 8, 3 nmol/kg twice a week",2.1
same,"Feed intake, Mean","[2]; Day 8, 10 nmol/kg twice a week",2.1
same,"Feed intake, Mean","[2]; Day 8, 30 nmol/kg twice a week",2.1
same,"Feed intake, Mean","[2]; Day 9, 3 nmol/kg twice a week",1.9
same,"Feed intake, Mean","[2]; Day 9, 10 nmol/kg twice a week",2.1
same,"Feed intake, Mean","[2]; Day 9, 30 nmol/kg twice a week",2.0
same,"Feed intake, Mean","[2]; Day 10, 3 nmol/kg twice a week",2.4
same,"Feed intake, Mean","[2]; Day 10, 10 nmol/kg twice a week",2.4
same,"Feed intake, Mean","[2]; Day 10, 30 nmol/kg twice a week",2.5
same,"Feed intake, Mean","[2]; Day 11, 3 nmol/kg twice a week",2.5
same,"Feed intake, Mean","[2]; Day 11, 10 nmol/kg twice a week",3.0
same,"Feed intake, Mean","[2]; Day 11, 30 nmol/kg twice a week",2.9
same,"Feed intake, Mean","[2]; Day 12, 3 nmol/kg twice a week",3.9
same,"Feed intake, Mean","[2]; Day 12, 10 nmol/kg twice a week",4.1
same,"Feed intake, Mean","[2]; Day 12, 30 nmol/kg twice a week",4.0
same,"Feed intake, Mean","[2]; Day 13, 3 nmol/kg twice a week",2.9
same,"Feed intake, Mean","[2]; Day 13, 10 nmol/kg twice a week",2.5
same,"Feed intake, Mean","[2]; Day 13, 30 nmol/kg twice a week",2.1
same,"Feed intake, Mean","[2]; Day 14, 3 nmol/kg twice a week",3.2
same,"Feed intake, Mean","[2]; Day 14, 10 nmol/kg twice a week",3.3
same,"Feed intake, Mean","[2]; Day 14, 30 nmol/kg twice a week",3.0
same,"Feed intake, Mean","[2]; Day 15, 3 nmol/kg twice a week",3.1
same,"Feed intake, Mean","[2]; Day 15, 10 nmol/kg twice a week",3.2
same,"Feed intake, Mean","[2]; Day 15, 30 nmol/kg twice a week",3.1
same,"Feed intake, Mean","[2]; Day 16, 3 nmol/kg twice a week",2.7
same,"Feed intake, Mean","[2]; Day 16, 10 nmol/kg twice a week",2.2
same,"Feed intake, Mean","[2]; Day 16, 30 nmol/kg twice a week",1.9
same,"Feed intake, Mean","[2]; Day 17, 3 nmol/kg twice a week",3.0
same,"Feed intake, Mean","[2]; Day 17, 10 nmol/kg twice a week",3.3
same,"Feed intake, Mean","[2]; Day 17, 30 nmol/kg twice a week",3.0
same,"Feed intake, Mean","[2]; Day 18, 3 nmol/kg twice a week",3.1
same,"Feed intake, Mean","[2]; Day 18, 10 nmol/kg twice a week",3.3
same,"Feed intake, Mean","[2]; Day 18, 30 nmol/kg twice a week",3.2
same,"Feed intake, Mean","[2]; Day 19, 3 nmol/kg twice a week",3.3
same,"Feed intake, Mean","[2]; Day 19, 10 nmol/kg twice a week",3.4
same,"Feed intake, Mean","[2]; Day 19, 30 nmol/kg twice a week",3.3
same,"Feed intake, Mean","[2]; Day 20, 3 nmol/kg twice a week",2.7
same,"Feed intake, Mean","[2]; Day 20, 10 nmol/kg twice a week",2.4
same,"Feed intake, Mean","[2]; Day 20, 30 nmol/kg twice a week",1.9
same,"Feed intake, Mean","[2]; Day 21, 3 nmol/kg twice a week",3.0
same,"Feed intake, Mean","[2]; Day 21, 10 nmol/kg twice a week",3.1
same,"Feed intake, Mean","[2]; Day 21, 30 nmol/kg twice a week",3.1
same,"Feed intake, Mean","[2]; Day 22, 3 nmol/kg twice a week",3.1
same,"Feed intake, Mean","[2]; Day 22, 10 nmol/kg twice a week",3.2
same,"Feed intake, Mean","[2]; Day 22, 30 nmol/kg twice a week",3.4
same,"Feed intake, Mean","[2]; Day 23, 3 nmol/kg twice a week",2.9
same,"Feed intake, Mean","[2]; Day 23, 10 nmol/kg twice a week",2.7
same,"Feed intake, Mean","[2]; Day 23, 30 nmol/kg twice a week",2.3
same,"Feed intake, Mean","[2]; Day 24, 3 nmol/kg twice a week",3.1
same,"Feed intake, Mean","[2]; Day 24, 10 nmol/kg twice a week",3.1
same,"Feed intake, Mean","[2]; Day 24, 30 nmol/kg twice a week",3.3
same,"Feed intake, Mean","[2]; Day 25, 3 nmol/kg twice a week",2.9
same,"Feed intake, Mean","[2]; Day 25, 10 nmol/kg twice a week",3.3
same,"Feed intake, Mean","[2]; Day 25, 30 nmol/kg twice a week",3.2
same,"Feed intake, Mean","[2]; Day 26, 3 nmol/kg twice a week",3.0
same,"Feed intake, Mean","[2]; Day 26, 10 nmol/kg twice a week",3.3
same,"Feed intake, Mean","[2]; Day 26, 30 nmol/kg twice a week",3.2
same,"Feed intake, Mean","[2]; Day 27, 3 nmol/kg twice a week",2.8
same,"Feed intake, Mean","[2]; Day 27, 10 nmol/kg twice a week",2.7
same,"Feed intake, Mean","[2]; Day 27, 30 nmol/kg twice a week",2.2
same,"Feed intake, Mean","[2]; Day 28, 3 nmol/kg twice a week",2.7
same,"Feed intake, Mean","[2]; Day 28, 10 nmol/kg twice a week",3.2
same,"Feed intake, Mean","[2]; Day 28, 30 nmol/kg twice a week",3.2
